According to patent publication US8586611B2 (priority 2005, dated 2013):
Read-outs that look alike come from different tables or passages of the source.

Experiments:
Type in all cases: in vivo
[1] = test system: Erysiphe graminis f. sp. tritici; test: Test E: wheat powdery mildew, spray the day before inoculation (disease rating, 100 = 100% disease control)
In short: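 Wheat seedlings sprayed to run-off with compound suspended in acetone/water 50/50 with 250 ppm Trem 014 (200 ppm equivalent to 500 g/ha); inoculated next day with Erysiphe graminis f. sp. tritici spore dust. Kept 7 days at 20° C, then rated 0–100% disease control versus controls.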

Phytophthora infestans [2] = test: whole plant or invertebrate; settings: for Test D disease rating (100 = 100% disease control, 0 = no disease control): tomato late blight
Phytophthora infestans [3] = test: whole plant or invertebrate; settings: for Test C disease rating (100 = 100% disease control, 0 = no disease control): tomato late blight
Plasmopara viticola = test: Test B: grape downy mildew, spray 24 h after inoculation (disease rating, 100 = 100% disease control)
In short: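 Grape seedlings were inoculated with Plasmopara viticola and held 24 h saturated at 20 °C, then sprayed to run-off with compound suspension (acetone/water with 250 ppm Trem 014; 200 ppm ≈ 500 g/ha). After 5 days at 20 °C and 24 h saturation, disease was rated from 0 to 100% control versus untreated.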

[4] = sprayed the day before inoculation, 7 days at 20° C., unmarked compounds (no asterisk, not 40 or 10 ppm)
[5] = sprayed 17 h after inoculation, unmarked compounds (no asterisk, not 40 or 10 ppm)
[6] = sprayed the day before inoculation, unmarked compounds (no asterisk, not 40 or 10 ppm)
[7] = sprayed 24 h after inoculation, unmarked compounds (no asterisk, not 40 or 10 ppm)
[8] = spray the day before inoculation, compounds without asterisk (not 40 or 10 ppm)
[9] = spray 17 h after inoculation, compounds without asterisk (not 40 or 10 ppm)
[10] = spray 24 h after inoculation, compounds without asterisk (not 40 or 10 ppm)
[11] = spray the day before inoculation, tested at 10 ppm

Row | SMILES | Test E disease rating (100 = 100% disease control, 0 = no disease control) [1, 4] | Test D disease rating (100 = 100% disease control, 0 = no disease control) (Phytophthora infestans [2]; [5]) | Test C disease rating (100 = 100% disease control, 0 = no disease control) (Phytophthora infestans [3]; [6]) | Test B disease rating (100 = 100% disease control, 0 = no disease control) (Plasmopara viticola; [7]) | Test E disease rating (100 = 100% disease control, 0 = no disease control) [1, 8] | Test D disease rating (100 = 100% disease control, 0 = no disease control) (Phytophthora infestans [2]; [9]) | Test C disease rating (100 = 100% disease control, 0 = no disease control) (Phytophthora infestans [3]; [8]) | Test B disease rating (100 = 100% disease control, 0 = no disease control) (Plasmopara viticola; [10]) | also measured
1 | Cc1cc(C(F)(F)F)nn1CC(=O)N1CCC(c2nc(C(=O)N3CCCC3c3ccc(Cl)cc3)cs2)CC1 (centres unmarked) [compound 290] | 0 | 26 | 90 | 0 |  |  |  |  | 
2 | C[C@@H](NC(=O)c1csc(C2CCN(C(=O)Cc3cccc(Br)c3)CC2)n1)c1ccccc1F [compound 276] | 0 | 0 | 17 | 30 |  |  |  |  | 
3 | CN(C(=O)c1csc(C2CCN(C(=O)Cc3ccccn3)CC2)n1)[C@@H]1CCCc2ccccc21 [compound 205] |  |  |  |  | 0% | 17% | 75% | 0% | 
4 | C[C@@H](NC(=O)c1csc(C2CCN(C(=O)Cc3cccc(Br)c3)CC2)n1)c1ccc(F)cc1 [compound 271] | 0 | 0 | 67 | 7 |  |  |  |  | 
5 | Cc1cc(C(F)(F)F)nn1CC(=O)N1CCC(c2nc(C(=O)N(C)[C@@H]3CC[C@@H](O)c4ccccc43)cs2)CC1 (racemic) [Compound 206, N-methyl-2-[1-[[5-methyl-3-(trifluoromethyl)-1H-pyrazol-1-yl]acetyl]-4-piperidinyl]-N-[(1R,4R)-1,2,3,4-tetrahydro-4-hydroxy-1-naphthalenyl]-4-thiazolecarboxamide] |  |  |  |  |  |  |  |  | pest or weed control at 40 ppm ([1]; Blumeria graminis, topical, 168 h, spray the day before inoculation, tested at 40 ppm, read-out: Test E disease rating (100 = 100% disease control, 0 = no disease control)): 0%; pest or weed control at 40 ppm (Phytophthora infestans [2]; Phytophthora infestans, in Solanum lycopersicum, topical, 96 h, read-out: Test D disease rating (100 = 100% disease control, 0 = no disease control)): 99%; pest or weed control at 40 ppm (Phytophthora infestans [3]; Phytophthora infestans, in Solanum lycopersicum, 144 h, read-out: Test C disease rating (100 = 100% disease control, 0 = no disease control)): 100%; pest or weed control at 40 ppm (Plasmopara viticola; Plasmopara viticola, 144 h, spray 24 h after inoculation, tested at 40 ppm, read-out: Test B disease rating (100 = 100% disease control, 0 = no disease control)): 99%
6 | COC(=O)[C@H](c1ccccc1)N(C)C(=O)c1csc(C2CCN(C(=O)Cn3nc(C(F)(F)F)cc3C)CC2)n1 [compound 244] |  |  |  |  | 0% | 93% | 99% | 100% | 
7 | Cc1cc(C(F)(F)F)nn1CC(=O)N1CCC(c2nc(C(=O)N(C)C(C)c3ccccc3Cl)cs2)CC1 (centres unmarked) [compound 251] |  |  |  |  |  |  |  |  | Test E disease rating (100 = 100% disease control, 0 = no disease control) [1, 11]: 0%; Test D disease rating (100 = 100% disease control, 0 = no disease control) (Phytophthora infestans [2]; spray 17 h after inoculation, tested at 10 ppm): 97%; Test C disease rating (100 = 100% disease control, 0 = no disease control) (Phytophthora infestans [3]; [11]): 100%; Test B disease rating (100 = 100% disease control, 0 = no disease control) (Plasmopara viticola; spray 24 h after inoculation, tested at 10 ppm): 100%
8 | C[C@H](c1ccccc1)N(C)C(=O)c1csc(C2CCN(C(=O)Cc3cccs3)CC2)n1 [compound 88] |  |  |  |  | 0% | 0% | 33% | 43% | 
9 | Cc1cc(C(F)(F)F)nn1CC(=O)N1CCC(c2nc(C(=O)N(C)C(C)c3ccccc3Br)cs2)CC1 (centres unmarked) [compound 252] |  |  |  |  |  |  |  |  | Test E disease rating (100 = 100% disease control, 0 = no disease control) ([1]; sprayed the day before inoculation, 7 days at 20° C., tested at 10 ppm (**)): 19; Test D disease rating (100 = 100% disease control, 0 = no disease control) (Phytophthora infestans [2]; sprayed 17 h after inoculation, tested at 10 ppm (**)): 85; Test C disease rating (100 = 100% disease control, 0 = no disease control) (Phytophthora infestans [3]; sprayed the day before inoculation, tested at 10 ppm (**)): 99; Test B disease rating (100 = 100% disease control, 0 = no disease control) (Plasmopara viticola; sprayed 24 h after inoculation, tested at 10 ppm (**)): 99
10 | C=CCN(C(=O)c1csc(C2CCN(C(=O)Cc3cc(C)ccc3C)CC2)n1)[C@H](C)c1ccccc1 [compound 284] | 0 | 0 | 21 | 10 |  |  |  |  | 
11 | CCc1nc(C)cn1CC(=O)N1CCC(c2nc(C(=O)N(C)[C@H](C)c3ccccc3)cs2)CC1 [compound 128] |  |  |  |  | 0% | 0% | 0% | 0% | 
